Read-outs that look alike come from different tables or passages of the source. Marks after values point to notes of the source that are not given here.
Key:
[1] = target: unphosphorylated VEGF-R2Δ50 (FLVK) (Homo sapiens, UniProt P35968, DEL940-989/E990V); assay: VEGF-R2 coupled spectrophotometric assay, unphosphorylated VEGF-R2Δ50 (FLVK); conditions: FLVK Ki, Table 1
[2] = Human liver microsome (HLM) assay; type: in vitro ADME; conditions: human liver microsomes, 5 μM test compound
Procedure: Human Liver Microsome (HLM) Assay Compound metabolism in human liver microsomes was measured by LC-MS analytical assay procedures as follows. […] (3 tubes per test compound-triplicate). […] The samples were then transferred to separate polypropylene microcentrifuge tubes and centrifuged at 14000 g for 10 min. (Fisher Micro […] M0017580). For each replicate (#1-3) at each timepoint (0 and 2 h), an aliquot sample of each test compound was combined into a single HPLC vial insert (6 total samples) for LC-MS analysis, which is described below.

[3] = Determination of inhibitor concentration in mouse plasma after intraperitoneal and oral dosing; type: in vivo
Method in brief: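 Mice dosed intraperitoneally or orally; blood taken by ocular bleed at 0.5, 1 and 4 h and by intracardiac puncture at 7 h. Plasma extracted with ethyl acetate after internal standard and NaOH addition, analysed by HPLC or LC-MS against a mouse-plasma standard curve.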

[4] = test system: human umbilical vein endothelial cells (HUVEC); assay: HUVEC proliferation assay (VEGF-stimulated, MTT); type: cell-based; conditions: Homo sapiens, HUVEC; read-out: HUVEC IC50
[5] = female, IP, 25 mg/kg, vehicle PEG400:H2O pH 2.3 30:70
[6] = female, IP, 25 mg/kg, vehicle PEG400:H2O pH 2.3 30:70, read-out: Cmin (7 hr conc.)
[7] = PO, 25 mg/kg, vehicle PEG400:H2O pH 2.3 30:70
[8] = female, PO, 25 mg/kg, vehicle PEG400:H2O pH 2.3 30:70
[9] = female, PO, 25 mg/kg, vehicle PEG400:H2O pH 2.3 30:70, read-out: Cmin (7 hr conc.)
[10] = IP, 25 mg/kg, vehicle PEG400:H2O pH 2.3 30:70
[11] = PO, 50 mg/kg, vehicle PEG400:H2O pH 2.3 30:70
[12] = female, PO, 50 mg/kg, vehicle PEG400:H2O pH 2.3 30:70, read-out: Cmin (7 hr conc.)
[13] = IP, 25 mg/kg, vehicle PEG400:H2O pH 2.3 60:40
[14] = PO, 50 mg/kg, vehicle PEG400:H2O pH 2.3 60:40
[15] = female, IP, 25 mg/kg, vehicle PEG400:H2O pH 2.3 60:40, read-out: Cmin (7 hr conc.)
[16] = female, PO, 50 mg/kg, vehicle PEG400:H2O pH 2.3 60:40, read-out: Cmin (7 hr conc.)

unphosphorylated VEGF-R2Δ50 (FLVK), sequence (P35968 with tags, fused parts or gaps DEL940-989/E990V limits assumed): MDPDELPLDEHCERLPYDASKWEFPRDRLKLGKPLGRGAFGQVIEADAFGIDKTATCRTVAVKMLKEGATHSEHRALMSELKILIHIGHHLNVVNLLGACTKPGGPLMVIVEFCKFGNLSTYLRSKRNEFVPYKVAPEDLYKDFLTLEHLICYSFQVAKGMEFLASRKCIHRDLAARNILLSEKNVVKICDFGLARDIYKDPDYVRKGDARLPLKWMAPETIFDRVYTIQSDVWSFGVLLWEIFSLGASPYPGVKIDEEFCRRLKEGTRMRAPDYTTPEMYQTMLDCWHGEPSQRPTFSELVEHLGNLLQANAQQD

O=C(Nc1cccc(Oc2ccc3c(/C=C/c4ccco4)n[nH]c3c2)c1)c1ccccc1 [Example 30(c), 6-[3-Benzamidophenoxy]-3-E-[2-(fur-2-yl)ethenyl]-1H-indazole]
Ki [1]: 0.83 nM
% remain (HLM, 2 h) [2]: 54%

O=C(NCc1cccc(F)c1)c1ccccc1Sc1ccc2c(/C=C/c3ccccn3)n[nH]c2c1 [Example 35(ff)]
Ki [1]: 0.11 nM
AUC(0-t) [3, 5]: > 6300 ng·h/mL
Cmax ([3]; female, IP, 25 mg/kg, vehicle PEG400:H2O pH 2.3 30:70, read-out: Cmax): > 4000 ng/mL
concentration at 7 h [3, 6]: 72 ng/mL
% remain (HLM, 2 h) [2]: 31%

Cc1cnc(C(=O)Nc2cccc(N(C)c3ccc4c(/C=C/c5ccccc5)n[nH]c4c3)c2)s1 [Example 12(d), 5-Methyl-thiazole-2-carboxylic Acid {3-[Methyl-(3-styryl-1H-indazol-6-yl)-amino]-phenyl}-amide]
Ki [1]: 0.39 nM
% remain (HLM, 2 h) [2]: 51%

O=C(Nc1cccc(Oc2ccc3c(/C=C/c4cccs4)n[nH]c3c2)c1)c1ccccc1 [Example 30(a), 6-[3-Benzamidophenoxy]-3-E-[2-(thien-2-yl)ethenyl]-1H-indazole]
Ki [1]: 1.7 nM
% remain (HLM, 2 h) [2]: 64%

Cn1ccnc1C(=O)Nc1cccc(Oc2ccc3c(/C=C/c4ccccn4)n[nH]c3c2)c1 [Example 31(e), 6-[3-((1-Methylimidazol-2-yl)carboxaniido)phenoxy]-3-E-[2-(pyridin-2-yl)ethenyl]-1H-indazole]
Ki [1]: 0.02 nM
plasma half-life (T1/2) [3, 7]: 13.1 h
AUC(0-t) [3, 8]: > 30300 ng·h/mL
concentration at 7 h [3, 9]: 2950 ng/mL
% remain (HLM, 2 h) [2]: 49%

O=C(NCC(F)(F)F)c1ccccc1Sc1ccc2c(/C=C/c3ccccn3)n[nH]c2c1 [Example 33(f), 6-[2-(2,2,2-Trifluoroethylcarbamoyl)phenylsulfanyl]-3-E-[2-(pyridin-2-yl)ethenyl]-1H-indazole]
Ki [1]: 8 nM
AUClast [3, 10]: 1887 ng·h/mL
plasma half-life (T1/2) [3, 10]: 2.4 h
AUClast [3, 11]: 1436 ng·h/mL
plasma half-life (T1/2) [3, 11]: 0.7 h
concentration at 7 h [3, 6]: 6 ng/mL
concentration at 7 h [3, 12]: 3 ng/mL
% remain (HLM, 2 h) [2]: 31%

C=CCn1nc(C)cc1C(=O)Nc1cccc(C(=O)c2ccc3c(/C=C/c4ccccn4)n[nH]c3c2)c1 [Example 41(t), 6-[3-((1-Allyl-3-methyl-1H-pyrazol-5-yl)carboxamido)benzoyl]-3-E-[2-(pyridin-2-yl)ethenyl]-1H-indazole]
Ki [1]: 0.06 nM
plasma half-life (T1/2) [3, 7]: 4.0 h
AUC(0-t) [3, 8]: > 22500 ng·h/mL
concentration at 7 h [3, 9]: 1350 ng/mL
% remain (HLM, 2 h) [2]: 87%

CC(=O)c1ccc(C(=O)Nc2cccc(C(=O)c3ccc4c(/C=C/c5ccccn5)n[nH]c4c3)c2)s1 [Example 41(e), 6-[3-((5-Acetylthien-2-yl)carboxamido)benzoyl]-3-E-[2-(pyridin-2-yl)ethenyl]-1H-indazole]
Ki [1]: 0.22 nM
AUClast [3, 13]: 4900 ng·h/mL
Cmax [3, 13]: 1154 ng/mL
plasma half-life (T1/2) [3, 13]: 1.6 h
AUClast [3, 14]: 302 ng·h/mL
Cmax [3, 14]: 113 ng/mL
plasma half-life (T1/2) [3, 14]: 1.6 h
concentration at 7 h [3, 15]: 301 ng/mL
concentration at 7 h [3, 16]: 7 ng/mL
% remain (HLM, 2 h) [2]: 22%

O=C(Nc1cccc(Oc2ccc3c(/C=C/c4ccc(Cl)cc4)n[nH]c3c2)c1)c1ccccc1 [Example 6(a), N-(3-{3-[2-(4-Chloro-phenyl)-vinyl]-1H-indazol-6-yloxy}-phenyl)-benzamide]
Ki [1]: 0.74 nM
% remain (HLM, 2 h) [2]: 69* %

Cc1cc(C(=O)Nc2cccc(C(=O)c3ccc4c(/C=C/c5ccccn5)n[nH]c4c3)c2)n[nH]1 [Example 41(g), 6-[3-((5-Methyl-1H-pyrazol-3-yl)carboxamido)benzoyl]-3-E-[2-(pyridin-2-yl)ethenyl]-1H-indazole]
Ki [1]: 0.1 nM
AUClast [3, 13]: 1925 ng·h/mL
plasma half-life (T1/2) [3, 13]: 0.3 h
AUClast [3, 14]: 508 ng·h/mL
plasma half-life (T1/2) [3, 14]: 0.7 h
concentration at 7 h [3, 15]: 0 ng/mL
concentration at 7 h [3, 16]: 1 ng/mL
% remain (HLM, 2 h) [2]: 52%

C[C@@H]1C[C@H]1C(=O)Nc1cccc(C(=O)c2ccc3c(/C=C/c4ccccn4)n[nH]c3c2)c1 (racemic) [Example 41(h), 6-[3-((2-RS-trans-Methylcyclopropyl)carboxamido)benzoyl]-3-E-[2-(pyridin-2-yl)ethenyl]-1H-indazole]
IC50 [4]: 2 nM
AUClast [3, 10]: 26911 ng·h/mL
Cmax [3, 10]: 16005 ng/mL
plasma half-life (T1/2) [3, 10]: 1.2 h
AUClast [3, 11]: 4677 ng·h/mL
Cmax [3, 11]: 4080 ng/mL
plasma half-life (T1/2) [3, 11]: 0.7 h
concentration at 7 h [3, 6]: 300 ng/mL
concentration at 7 h [3, 12]: 7 ng/mL
% remain (HLM, 2 h) [2]: 8%

O=C(c1cccc(NC(=O)c2ccc(Cl)s2)c1)c1ccc2c(/C=C/c3ccccn3)n[nH]c2c1 [Example 41(o), 6-[3-((5-Chlorothien-2-yl)carboxamido)benzoyl]-3-E-[2-(pyridin-2-yl)ethenyl]-1H-indazole]
Ki [1]: 0.05 nM
AUClast [3, 11]: 14717 ng·h/mL
plasma half-life (T1/2) [3, 11]: 1.7 h
AUC(0-t) [3, 5]: > 33800 ng·h/mL
concentration at 7 h [3, 6]: > 5000 ng/mL
concentration at 7 h [3, 12]: 427 ng/mL
% remain (HLM, 2 h) [2]: 94%

O=C(Nc1cccc(C(=O)c2ccc3c(-c4nc5ccccc5[nH]4)n[nH]c3c2)c1)c1ccccc1 [Example 42(b), 6-(3-Benzamidobenzoyl)-3-(1H-benzoimidazol-2-yl)-1H-indazole]
Ki [1]: 0.35 nM
AUClast [3, 13]: 3207 ng·h/mL
plasma half-life (T1/2) [3, 13]: 3.0 h
AUClast [3, 14]: 4747 ng·h/mL
plasma half-life (T1/2) [3, 14]: 3.0 h
concentration at 7 h [3, 15]: 211 ng/mL
concentration at 7 h [3, 16]: 46 ng/mL
% remain (HLM, 2 h) [2]: 81%

Cc1cccc(C(=O)Nc2cccc(N(C)c3ccc4c(/C=C/c5ccc6c(c5)OCO6)n[nH]c4c3)c2)c1 [Example 16(b), N-(3-{[3-(2-Benzo[1,3]dioxol-5-yl-vinyl)-1H-indazol-6-yl]-methyl-amino}-phenyl)-3-methyl-benzamide]
Ki [1]: 0.34 nM
% remain (HLM, 2 h) [2]: 50%

Cc1cnc(C(=O)Nc2cccc(C(=O)c3ccc4c(/C=C/c5ccccc5)n[nH]c4c3)c2)s1 [Example 19(d), 5-Methyl-thiazole-2-carboxylic Acid[3-(3-styryl-1H-indazole-6-carbonyl)-phenyl]-amide]
Ki [1]: 0.72 nM
% remain (HLM, 2 h) [2]: 36%

O=C(c1cccc(NC(=O)c2cccc3[nH]ccc23)c1)c1ccc2c(/C=C/c3ccccc3)n[nH]c2c1 [Example 19(f), 6-[3-(Indol-4-ylcarboxamido)benzoyl]-3-E-styryl-1H-indazole]
Ki [1]: 0.18 nM
% remain (HLM, 2 h) [2]: 98%

CN(c1cccc(NC(=O)c2ccccc2)c1)c1ccc2c(/C=C/c3ccc4c(c3)OCO4)n[nH]c2c1 [Example 16(a), N-(3-{[3-(2Benzo[1,3]dioxol-5-yl-vinyl)-1H-indazol-6-yl]-methyl-amino}-phenyl)-benzanide]
Ki [1]: 0.08 nM
% remain (HLM, 2 h) [2]: 7* %

O=C(Nc1cccc(Nc2ccc3c(/C=C/c4ccccc4)n[nH]c3c2)c1)c1ccccc1 [Example 13, N-[3-(3-Styryl-1H-indazol-6-ylamino)-phenyl]-benzamide]
Ki [1]: 1.3 nM
% remain (HLM, 2 h) [2]: 69%

Cc1ccc(CNC(=O)c2ccccc2Sc2ccc3c(/C=C/c4ccccn4)n[nH]c3c2)o1 [Example 35(h), 6-[2-((5-Methylfur-2-yl)methylcarbamoyl)phenylsulfanyl]-3-E-[2-(pyridin-2-yl)ethenyl]-1H-indazole]
AUClast [3, 10]: 59 ng·h/mL
plasma half-life (T1/2) [3, 10]: 1.5 h
AUClast [3, 11]: 26 ng·h/mL
Cmax [3, 11]: 7 ng/mL
concentration at 7 h [3, 6]: 1 ng/mL
concentration at 7 h [3, 12]: 2 ng/mL
% remain (HLM, 2 h) [2]: 9%

O=C(c1cccc(NC(=O)c2cccc(Cl)n2)c1)c1ccc2c(/C=C/c3ccccc3)n[nH]c2c1 [Example 19(m), 6-[3-(6-Chloropyridin-2-ylcarboxamido)benzoyl]-3-E-styryl-1H-indazole]
Ki [1]: 0.68 nM
% remain (HLM, 2 h) [2]: 61%

CCNC(=O)c1ccccc1Sc1ccc2c(/C=C/c3ccccn3)n[nH]c2c1 [Example 35(x), 6-[2-(Ethylcarbamoyl)phenylsulfanyl]-3-E-[2-(pyridin-2-yl)ethenyl]-1H-indazole]
AUClast [3, 10]: 951 ng·h/mL
plasma half-life (T1/2) [3, 10]: 3.2 h
AUClast [3, 11]: 3516 ng·h/mL
plasma half-life (T1/2) [3, 11]: 0.9 h
concentration at 7 h [3, 6]: 48 ng/mL
concentration at 7 h [3, 12]: 16 ng/mL
% remain (HLM, 2 h) [2]: 37%

From patent US6534524B1, “Indazole compounds and pharmaceutical compositions for inhibiting protein kinases, and methods for their use” (Agouron Pharmaceuticals, Inc., priority 1999, dated 2003)
